# Assay results as given in patent US20250275928A1, “NANOPARTICLE-BASED ABUSE-DETERRENT FORMULATIONS AND METHODS OF MAKING AND USING” (Purdue Research Foundation, priority 2021, published 2025).
# Columns and labels:
# [1] = Chemical extractability from nanocapsules by household solvents
# [2] = Equilibrium solubility of thebaine in ethanol; format: physicochemical; conditions: organic solvent or mixture, thermodynamic from solid
# Procedure: Chemical extractability of thebaine, a model opioid drug, as a mixture with a non-gel forming excipient, Avicel pH 102, or selected gel-forming polymers, was tested using absolute ethanol. […] Physical mixtures of thebaine (600 μg) with 150 mg Avicel or Avicel with selected polymers (80 mg XG, 20 mg XG+30 mg HEC, or 20 mg XG+60 mg CS) mg) were extracted in 1 mL of absolute ethanol for 1 h. Free thebaine without any excipients was also tested for comparison.
# [3] = Thermal stability of thebaine (TGA, heating); format: physicochemical
# [4] = Dissolution in simulated gastric fluid; conditions: after 12 and 24 h
compound,measurement,setting,value
COC1=CC=C2[C@H]3Cc4ccc(OC)c5c4[C@@]2(CCN3C)[C@H]1O5 [thebaine],solubility in household solvents,[1]; all tested solvents except for 0.9% NaCl and 0.1 M NaOH,soluble
same,dissolution in household solvents,[1]; most solvents at equivalent concentrations,dissolves completely
same,solubility thermodynamic at 24 h,[2]; in 24 h,10.4 mg/mL
same,solubility thermodynamic at 72 h,[2]; in 72 h,10.5 mg/mL
same,drug that withstood heating,"[3]; 180° C. for 10 min, drug alone",86.9%
same,temperature at which decomposition began (TGA),[3]; thermogravimetric analysis,around 200 °C
same,stability in SGF,[4],degraded
